In patent US20260242405A1, “N-DERIVATIZED SIALIC ACIDS AND RELATED SIALOSIDES” (THE REGENTS OF THE UNIVERSITY OF CALIFORNIA, priority 2023, published 2026):
Read-outs that look alike come from different tables or passages of the source.

Legend:
[1] = biological target: N1-BR18 (IAV neuraminidase) (Influenza A virus, UniProt A0A0X9QTS2); test: Fluorescence-based inhibition assay (substrate Neu5Acα2-3GalβMU, β-galactosidase coupled); assay type: biochemical, influenza A virus A/Brisbane/02/2018 (H1N1); conditions: for Percentage inhibition against N1-BR18 (IAV) / percentage inhibition against N1-BR18: inhibitor 8.0 μM; for Percentage inhibition against N1-BR18 (IAV): substrate Neu5Acα2-3GalβMU 8.0 μM; for IC50: read-out: IC50 against N1-BR18
[2] = biological target: NB-Aus21 (IBV neuraminidase) (Influenza B virus, UniProt A0A1X9RX69); test: biochemical; set-up: species or system influenza B virus B/Austria/1359417/2021
[3] = biological target: T1, hNEU2 (human cytosolic sialidase) (Homo sapiens, UniProt Q9Y3R4); test: Fluorescence-based inhibition assay (substrate Neu5Acα2-3GalβMU, β-galactosidase coupled); assay type: biochemical; conditions: inhibitor 8.0 μM
T1 construct: made in house
T1 sequence (Q9Y3R4 whole entry): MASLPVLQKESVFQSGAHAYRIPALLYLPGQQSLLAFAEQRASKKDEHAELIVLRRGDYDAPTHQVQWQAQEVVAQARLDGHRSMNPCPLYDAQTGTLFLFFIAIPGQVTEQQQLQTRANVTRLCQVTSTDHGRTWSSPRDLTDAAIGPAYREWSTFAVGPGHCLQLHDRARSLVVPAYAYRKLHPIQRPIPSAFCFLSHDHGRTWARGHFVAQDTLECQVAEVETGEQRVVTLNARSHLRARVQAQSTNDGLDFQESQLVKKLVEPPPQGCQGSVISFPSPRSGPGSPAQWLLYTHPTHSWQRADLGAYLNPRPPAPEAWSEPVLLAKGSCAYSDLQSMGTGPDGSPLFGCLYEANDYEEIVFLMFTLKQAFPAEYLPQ

[4] = test system: N1-Vic19 (IAV neuraminidase); test: as above; assay type: biochemical, influenza A virus A/Victoria/2570/2019 (H1N1); conditions: for percentage inhibition against N1-Vic19: inhibitor 8.0 μM, Example 3, Table 4
[5] = biological target: N2-Dar21 (IAV neuraminidase) (Influenza A virus, UniProt A0A193ACB1); test: as above; assay type: biochemical, influenza A virus A/Darwin/9/2021 (H3N2); conditions: for percentage inhibition against N2-Dar21: inhibitor 8.0 μM, Example 3, Table 4; for inhibition at 8 µM: read-out: percentage inhibition against N2-Dar21
[6] = biological target: N2-Kan17 (IAV neuraminidase) (Influenza A virus, UniProt A0A193ACB1); test: as above; assay type: biochemical, influenza A virus A/Kansas/14/2017 (H3N2); conditions: for percentage inhibition against N2-Kan17: inhibitor 8.0 μM, Example 3, Table 4; for inhibition at 8 µM: read-out: percentage inhibition against N2-Kan17
[7] = biological target: NB-Phu13 (IBV neuraminidase) (Influenza B virus, UniProt A0A1S5RAG6); test: as above; assay type: biochemical, influenza B virus B/Phuket/3073/2013; conditions: for percentage inhibition against NB-Phu13: inhibitor 8.0 μM, Example 3, Table 4; for inhibition at 8 µM: read-out: percentage inhibition against NB-Phu13
[8] = biological target: T2, PmST1 WT (sialidase activity of α2-3-sialyltransferase 1 in the presence of CMP) (Pasteurella multocida, UniProt Q15KI8); test: biochemical; conditions: for percent inhibition against PmST1 WT: inhibitor 8.0 μM, in the presence of CMP, Table 5; for inhibition at 8 µM: read-out: percent inhibition against PmST1 WT
T2 construct: made in house

SpNanA (sialidase) = biological target: T3, SpNanA (sialidase) (Streptococcus pneumoniae, UniProt P62575); test: Fluorescence-based inhibition assay (substrate Neu5Acα2-3GalβMU, β-galactosidase coupled); assay type: biochemical; conditions: for percent inhibition against SpNanA: inhibitor 8.0 μM, Table 5; for inhibition at 8 µM: read-out: percent inhibition against SpNanA
T3 construct: made in house

[9] = inhibitor 8.0 μM, substrate Neu5Acα2-3GalβMU 8.0 μM, Example 2, Table 2
[10] = substrate Neu5Acα2-3GalβMU 8.0 μM, Example 2, Table 2
[11] = inhibitor 8.0 μM, Example 3, Table 4
[12] = read-out: Percentage inhibition against N1-BR18 (IAV), inhibitor 8.0 μM, substrate Neu5Acα2-3GalβMU 8.0 μM, Example 2, Table 2
[13] = read-out: percentage inhibition against N1-BR18, inhibitor 8.0 μM, Example 3, Table 4
[14] = inhibitor 8.0 μM, substrate Neu5Acα2-3GalβMU 8.0 μM, Example 2, Table 2, read-out: Percentage inhibition against NB-Aus21 (IBV)
[15] = inhibitor 8.0 μM, Example 3, Table 4, read-out: percentage inhibition against NB-NB-Aus21
[16] = substrate Neu5Acα2-3GalβMU 8.0 μM, Example 2, Table 2, read-out: Percentage inhibition against hNEU2
[17] = Table 5, read-out: percent inhibition against hNEU2

## CC(=O)N[C@H]1[C@H]([C@H](O)[C@H](O)CO)OC(O)(C(=O)O)C[C@@H]1NC(=N)N (stereo partly drawn) [4-Guanidino-Neu5Ac (9), 4-guanidino-Neu5Ac]
[1]; Example 2, Table 2
  Percentage inhibition against N1-BR18 (IAV): 76.4 ± 4.9%
[2]; [9]
  Percentage inhibition against NB-Aus21 (IBV): 51.0 ± 0.1%
[3]; [10]
  Percentage inhibition against hNEU2: 3.3 ± 0.6%

## CC(=O)N[C@H]1[C@H]([C@H](O)[C@H](O)CO)OC(O)(C(=O)O)C[C@@H]1N=[N+]=[N-] (stereo partly drawn) [4N3Neu5Ac (7), 4-azido-Neu5Ac]
[1]; Example 2, Table 2
  Percentage inhibition against N1-BR18 (IAV): 0.0 ± 4.5%
[2]; [9]
  Percentage inhibition against NB-Aus21 (IBV): 37.5 ± 4.1%
[3]; [10]
  Percentage inhibition against hNEU2: 3.0 ± 0.8%

## CC(=O)N[C@H]1[C@H]([C@H](O)[C@H](O)CO)OC(C(=O)O)=C[C@@H]1NC(C)=O [4NAcNeu5Ac2en]
[1]; Example 2, Table 2
  Percentage inhibition against N1-BR18 (IAV): 0.0 ± 2.5%
[1]; Example 3, Table 4
  percentage inhibition against N1-BR18: 2.5%
[2]; [9]
  Percentage inhibition against NB-Aus21 (IBV): 21.3 ± 0.2%
[2]; [11]
  percentage inhibition against NB-NB-Aus21: 1.4%
[3]; [10]
  Percentage inhibition against hNEU2: 2.1 ± 2.5%
[3]; Table 5
  percent inhibition against hNEU2: 2.1 ± 2.5%
[4]
  percentage inhibition against N1-Vic19: 0.7%
[5]
  percentage inhibition against N2-Dar21: 2.4%
[6]
  percentage inhibition against N2-Kan17: 6.1%
[7]
  percentage inhibition against NB-Phu13: 0.6%
[8]
  percent inhibition against PmST1 WT: 7.1 ± 0.7%
SpNanA (sialidase)
  percent inhibition against SpNanA: 0.5 ± 6.5%

## CC(=O)N[C@H]1[C@H]([C@H](O)[C@H](O)CO)OC(O)(C(=O)O)C[C@@H]1NC(C)=O (stereo partly drawn) [4NAcNeu5Ac (3), 4NAcNeu5Ac]
[1]; Example 2, Table 2
  Percentage inhibition against N1-BR18 (IAV): 11.5 ± 22.7%
[2]; [9]
  Percentage inhibition against NB-Aus21 (IBV): 27.9 ± 10.1%
[3]; [10]
  Percentage inhibition against hNEU2: 3.0 ± 1.0%

## CC(=O)NC1C[C@](OCC2O[C@@H](Oc3ccc([N+](=O)[O-])cc3)C(O)C(O)[C@H]2O)(C(=O)O)OC([C@H](O)[C@H](O)CO)[C@@H]1NC(C)=O (stereo partly drawn) [4NAcNeu5Acα2-6GalβpNP]
[1]; [12]
  inhibition at 8 µM: 0%
[1]; [13]
  inhibition at 8 µM: 0%
[2]; [14]
  inhibition at 8 µM: 21.5 ± 1.7%
[2]; [15]
  inhibition at 8 µM: 0.4%
[3]; [16]
  inhibition at 8 µM: 0%
[3]; [17]
  inhibition at 8 µM: 0%
[4]
  percentage inhibition against N1-Vic19: 0.4%
[5]
  inhibition at 8 µM: 0.4%
[6]
  inhibition at 8 µM: 1%
[7]
  inhibition at 8 µM: 1.5%
[8]
  inhibition at 8 µM: 18.6 ± 4%
SpNanA (sialidase)
  inhibition at 8 µM: 4.2 ± 0.8%

## CC(=O)N[C@H]1[C@H]([C@H](O)[C@H](O)CO)OC(C(=O)O)=C[C@@H]1N [4NH2Neu5Ac2en, 4-amino-2,3-dehydro-N-acetylneuraminic acid, reference compound]
[1]; fluorescence-based inhibition assay, Example 2, Table 3, listed as 4NH2Neu5 Ac2en
  IC50: 490 nM
[1]; fluorescence-based inhibition assay, Example 2, Table 3
  IC50: 490 nM
[1]; Example 2, Table 2
  Percentage inhibition against N1-BR18 (IAV): 93.6 ± 0.2%
[1]; Example 3, Table 4
  percentage inhibition against N1-BR18: 94.9%
[2]; [9]
  Percentage inhibition against NB-Aus21 (IBV): 98.3 ± 0.1%
[2]; [11]
  percentage inhibition against NB-NB-Aus21: 97.4%
[3]; [10]
  Percentage inhibition against hNEU2: 0.0 ± 6.6%
[3]; Table 5
  percent inhibition against hNEU2: 0.0 ± 6.6%
[4]
  percentage inhibition against N1-Vic19: 95.9%
[5]
  percentage inhibition against N2-Dar21: 94.6%
[6]
  percentage inhibition against N2-Kan17: 91.3%
[7]
  percentage inhibition against NB-Phu13: 91.2%
[8]
  percent inhibition against PmST1 WT: 9.8 ± 1.2%
SpNanA (sialidase)
  percent inhibition against SpNanA: 7.9 ± 2.6%

## CC(=O)N[C@H]1[C@H]([C@H](O)[C@H](O)CO)OC(O)(C(=O)O)C[C@@H]1N (stereo partly drawn) [4NH2Neu5Ac (8), 4-amino-4-deoxy-N-acetylneuraminic acid]
[1]; [12]
  inhibition at 8 µM: 28.6 ± 24.5%
[2]; [14]
  inhibition at 8 µM: 41.8 ± 2.8%
[3]; [16]
  inhibition at 8 µM: 2.2 ± 1.2%

## CC(=O)N[C@H]1[C@H]([C@H](O)[C@H](O)CO)OC(C(=O)O)=C[C@@H]1N=[N+]=[N-] [Compound 4N3Neu5Ac2en, 4N3Neu5Ac2en]
[1]; Example 3, Table 6
  IC50: 4400 ± 200 nM
[1]; Example 2, Table 2
  Percentage inhibition against N1-BR18 (IAV): 40.7 ± 2.7%
[1]; Example 3, Table 4
  percentage inhibition against N1-BR18: 39.2%
[2]; 8 µM
  percentage inhibition against NB-NB-Aus21: 78.8±3.7%
[2]; Example 3, Table 6, read-out: IC50 against NB-NB-Aus21
  IC50: 1500 ± 100 nM
[2]; [9]
  Percentage inhibition against NB-Aus21 (IBV): 82.8 ± 1.7%
[3]; [10]
  Percentage inhibition against hNEU2: 3.3 ± 0.6%
[3]; Table 5
  percent inhibition against hNEU2: 3.3 ± 0.6%
[4]; Example 3, Table 6, read-out: IC50 against N1-Vic19
  IC50: 6200 ± 400 nM
[4]
  percentage inhibition against N1-Vic19: 39.6%
[5]
  percentage inhibition against N2-Dar21: 22.1%
[6]
  percentage inhibition against N2-Kan17: 18.3%
[7]; Example 3, Table 6, read-out: IC50 against NB-Phu13
  IC50: 1400 ± 100 nM
[7]
  percentage inhibition against NB-Phu13: 75.6±1.6%
[8]
  percent inhibition against PmST1 WT: 15.4 ± 5.0%
SpNanA (sialidase)
  percent inhibition against SpNanA: 3.0 ± 1.3%

## CC(=O)N[C@H]1[C@H]([C@H](O)[C@H](O)CO)OC(O)(C(=O)O)C[C@@H]1O (stereo partly drawn) [Neu5Ac (1), N-Acetylneuraminic acid, reference compound]
[1]; [12]
  inhibition at 8 µM: 5.2 ± 5.3%
[2]; [14]
  inhibition at 8 µM: 20.2 ± 2.6%
[3]; [16]
  inhibition at 8 µM: 1.7 ± 0.5%

## CC(=O)N[C@@H]1C(O)C[C@](OC2C(O)[C@H](Oc3ccc([N+](=O)[O-])cc3)OC(CO)[C@@H]2O)(C(=O)O)OC1[C@H](O)[C@H](O)CO (stereo partly drawn) [Neu5Acα2-3GalβpNP, reference compound]
[1]; [12]
  inhibition at 8 µM: 2.3 ± 1.2%
[1]; [13]
  inhibition at 8 µM: 1.8%
[2]; [14]
  inhibition at 8 µM: 25.6 ± 2.3%
[2]; [15]
  inhibition at 8 µM: 0.5%
[3]; [16]
  inhibition at 8 µM: 0%
[3]; [17]
  inhibition at 8 µM: 0%
[4]
  percentage inhibition against N1-Vic19: 3.3%
[5]
  inhibition at 8 µM: 0.9%
[6]
  inhibition at 8 µM: 0.1%
[7]
  inhibition at 8 µM: 0.7%
[8]
  inhibition at 8 µM: 12.4 ± 2.2%
SpNanA (sialidase)
  inhibition at 8 µM: 17.1 ± 6.1%

## CC(=O)N[C@@H]1C(O)C[C@](OCC2O[C@@H](Oc3ccc([N+](=O)[O-])cc3)C(O)C(O)[C@H]2O)(C(=O)O)OC1[C@H](O)[C@H](O)CO (stereo partly drawn) [Neu5Acα2-6GalβpNP, reference compound]
[1]; [12]
  inhibition at 8 µM: 0%
[1]; [13]
  inhibition at 8 µM: 3.5%
[2]; [14]
  inhibition at 8 µM: 25.8 ± 2.1%
[2]; [15]
  inhibition at 8 µM: 0.2%
[3]; [16]
  inhibition at 8 µM: 0%
[3]; [17]
  inhibition at 8 µM: 0%
[4]
  percentage inhibition against N1-Vic19: 1.4%
[5]
  inhibition at 8 µM: 0.8%
[6]
  inhibition at 8 µM: 0.4%
[7]
  inhibition at 8 µM: 0.8%
[8]
  inhibition at 8 µM: 14.6 ± 6.4%
SpNanA (sialidase)
  inhibition at 8 µM: 5.8 ± 6.8%
